In patent US20260199368A1, “[…] SYSTEM CONTAINING REMIMAZOLAM” (LTS LOHMANN THERAPIE-SYSTEME AG, priority 2022, published 2026):

Test: In vivo studies using Goettingen minipigs: RMZ and CNS7054 plasma pharmacokinetics and bioavailability
Conditions: IV, 10 mg
Procedure: In order to assess the pharmacokinetic profile and effect of buccally administered oromucosal delivery systems containing remimazolam besylate, in vivo experiments using Goettingen minipigs (female, about 3 months old, body weight was 7 kg at the start of the study) were conducted. Three minipigs were used. A single oromucosal delivery system of Examples 1c (foam) and 1d (hotmelt), prepared as described above, with a nominal amount of 20 mg remimazolam (formulated as 27.2 mg nominal remimazolam besylate), was used per animal (with the exception of animal No 3 in Phase 1, where only half of an oromucosal delivery system of each type was placed in each side). The oromucosal delivery system foam was cut into two pieces to fit on the buccal mucosa.
The dose was given by buccal administration (oromucosal delivery system; hotmelt and foam) or IV administration (10 mg remimazolam formulated as remimazolam besylate according to the treatment schedule shown in table 9. No less than 48 hours were allowed between dosing occasions to allow for proper wash-out. The treatment with the oromucosal delivery systems was performed as follows: • 1. The animals were anaesthetized by mask with isoflurane to obtain sufficient depth of anesthesia to facilitate the placement of the oromucosal delivery system without stressing the animals. The length and concentration of isoflurane anesthesia was similar in all animals. • 2. The oromucosal delivery system was placed on the buccal mucosa. A small amount of saline was applied to the mucosa to facilitate the dissolution process on a single occasion in Phase 1. • 3. The mouth of the minipigs was closed for 1-2 minutes and then opened to check for completely dissolved oromucosal delivery system. If the oromucosal delivery system was not dissolved further checks were performed with intervals of 1-2 minutes, as required. • 4. The isoflurane treatment was stopped as soon as the oromucosal delivery system was dissolved.
In order to evaluate the bioavailability, the animals also received a single intravenous (IV) dose. The IV dose volume was administered as a bolus over a period of approximately 1 minute.
The RMZ IV dose formulation was prepared in glass containers. To prepare said formulation of nominal 5 mg/mL (stock solution), a drug product vial (50 mg of RZM powder) was reconstituted with 10 mL of 0.9% w/v sodium chloride solution. The reconstituted solutions of RMZ were clear and colorless to slightly yellow. The reconstituted RMZ drug product was used within 24 hours.
After each dosing in phase 2-4, blood samples were taken from all animals. Blood samples were collected at 8 time points following application of the oromucosal delivery systems. Samples were collected at the following time points: pre-treatment, and 2, 5, 10, 20, 40, 60 and 90 minutes post-treatment.
RMZ concentrations and CNS7054 concentrations in minipig plasma were determined using a validated liquid-liquid extraction followed by LC-MS/MS. All samples, collected before treatment start, were measured to be below the limit of quantification (0.100 ng/mL).
Individual plasma concentrations are listed in Table 13 and are graphically depicted in FIGS. 3a to 5b. Additionally, basic pharmacokinetic parameters such as maximal plasma concentration (cmax), time to reaching it (tmax) and exposure defined as Area Under the Curve (AUC0-t) are summarized in Table 13 for each individual animal for both RMZ and CNS7054 and following IV administration or administration of either of the two oromucosal delivery system formulations.
For the evaluation of the bioavailability (BA), dose-normalized cmax (cmax/D) and dose-normalized AUC (AUC0-t/D) were determined for the two oromucosal delivery system formulations for RMZ and CNS7054.

Q: What does the source list for `COC(=O)CC[C@@H]1N=C(c2ccccn2)c2cc(Br)ccc2-n2c(C)cnc21.O=S(=O)(O)c1ccccc1` [RMZ, remimazolam besylate]?
A: CNS7054 plasma concentration (Animal No 1, 1 min): 108 ng/mL; Remimazolam plasma concentration (Animal No 1, 1 min): 1032 ng/mL; CNS7054 plasma concentration (Animal No 1, 5 min): 224 ng/mL; Remimazolam plasma concentration (Animal No 1, 5 min): 767 ng/mL; CNS7054 plasma concentration (Animal No 1, 10 min): 283 ng/mL; Remimazolam plasma concentration (Animal No 1, 10 min): 389.5 ng/mL; CNS7054 plasma concentration (Animal No 1, 20 min): 423 ng/mL; Remimazolam plasma concentration (Animal No 1, 20 min): 285.5 ng/mL; CNS7054 plasma concentration (Animal No 1, 40 min): 406 ng/mL; Remimazolam plasma concentration (Animal No 1, 40 min): 149.3 ng/mL; CNS7054 plasma concentration (Animal No 1, 60 min): 329 ng/mL; Remimazolam plasma concentration (Animal No 1, 60 min): 76.1 ng/mL; CNS7054 plasma concentration (Animal No 1, 90 min): 302 ng/mL; Remimazolam plasma concentration (Animal No 1, 90 min): 40.6 ng/mL; CNS7054 AUC0-t (Animal No 1): 30508.5 ng·min/mL; CNS7054 cmax (Animal No 1): 423 ng/mL; CNS7054 tmax (Animal No 1): 20 min; Remimazolam AUC0-t (Animal No 1): 18349.25 ng·min/mL; Remimazolam cmax (Animal No 1): 1032 ng/mL; Remimazolam tmax (Animal No 1): 2 min; CNS7054 plasma concentration (Animal No 2, 1 min): 539 ng/mL; Remimazolam plasma concentration (Animal No 2, 1 min): 1244 ng/mL; CNS7054 plasma concentration (Animal No 2, 5 min): 707 ng/mL; Remimazolam plasma concentration (Animal No 2, 5 min): 432 ng/mL; CNS7054 plasma concentration (Animal No 2, 10 min): 851 ng/mL; Remimazolam plasma concentration (Animal No 2, 10 min): 469 ng/mL; CNS7054 plasma concentration (Animal No 2, 20 min): 783 ng/mL; Remimazolam plasma concentration (Animal No 2, 20 min): 208.8 ng/mL; CNS7054 plasma concentration (Animal No 2, 40 min): 508 ng/mL; Remimazolam plasma concentration (Animal No 2, 40 min): 52.6 ng/mL; CNS7054 plasma concentration (Animal No 2, 60 min): 267 ng/mL; CNS7054 plasma concentration (Animal No 2, 90 min): 170 ng/mL; CNS7054 AUC0-t (Animal No 2): 41688 ng·min/mL; CNS7054 cmax (Animal No 2): 851 ng/mL; CNS7054 tmax (Animal No 2): 10 min; Remimazolam AUC0-t (Animal No 2): 12539.5 ng·min/mL; Remimazolam cmax (Animal No 2): 1244 ng/mL; Remimazolam tmax (Animal No 2): 2 min; CNS7054 plasma concentration (Animal No 3, 1 min): 387 ng/mL; Remimazolam plasma concentration (Animal No 3, 1 min): 654 ng/mL; CNS7054 plasma concentration (Animal No 3, 5 min): 815 ng/mL; Remimazolam plasma concentration (Animal No 3, 5 min): 353.9 ng/mL; CNS7054 plasma concentration (Animal No 3, 10 min): 798 ng/mL; Remimazolam plasma concentration (Animal No 3, 10 min): 201 ng/mL; CNS7054 plasma concentration (Animal No 3, 20 min): 770 ng/mL; Remimazolam plasma concentration (Animal No 3, 20 min): 124.3 ng/mL; CNS7054 plasma concentration (Animal No 3, 40 min): 625 ng/mL; Remimazolam plasma concentration (Animal No 3, 40 min): 41.2 ng/mL; CNS7054 plasma concentration (Animal No 3, 60 min): 423 ng/mL; Remimazolam plasma concentration (Animal No 3, 60 min): 52.2 ng/mL; CNS7054 plasma concentration (Animal No 3, 90 min): 123 ng/mL; CNS7054 AUC0-t (Animal No 3): 46682.5 ng·min/mL; CNS7054 cmax (Animal No 3): 815 ng/mL; CNS7054 tmax (Animal No 3): 5 min; Remimazolam AUC0-t (Animal No 3): 8551.6 ng·min/mL; Remimazolam cmax (Animal No 3): 654 ng/mL; Remimazolam tmax (Animal No 3): 2 min
